Measured values reported in paper PMC7248880, “Preclinical Incorporation Dosimetry of [^18F]FACH—A Novel ^18F-Labeled MCT1/MCT4 Lactate Transporter Inhibitor for Imaging Cancer Metabolism with PET” (Molecules, 2020).

Assay: Preclinical incorporation dosimetry: whole-body PET/CT in piglets, scaled to human, OLINDA 2.1, ICRP103
Type: in vivo, juvenile pigs
Method: Three piglets (age: ~6 weeks, weight: ~13–15 kg) were fasted on the day of imaging and received an intranuscular. injection of 1 mL azaperone and 4 mL ketamine to introduce anesthesia. […] During narcosis, the animals maintained spontaneous respiration and no mandatory ventilation was applied. The subjects were sequentially imaged after an iv injection (contralateral ear vein) of 156 ± 54 MBq [^18F]FACH (0.63 ± 0.49 µg) in a PET/CT system (Biograph16, SIEMENS, Erlangen, Germany). The piglets were positioned prone with legs alongside the body on a custom-made plastic trough including a piglet head-holder (Figure 5). The PET acquisition was divided into a sequential (4 × 9 min, 3 × 12 min) and a static part (1 × 24 min, 1 × 30 min, 1 × 36 min), each of which was preceded by a low-dose CT to acquire structural data for attenuation correction (AC) and anatomical orientation (Figure 6). Post mortem, the urine was collected by bladder punctuation, weighted, and divided into three 1 mL samples for activity measurements in a gamma-counter (Packard Cobra II 5003 Auto Gamma Counting System, GMI, Ramsey, MN, USA).
PET data reconstruction was done using low-dose CT attenuation correction (AC) and an iterative OSEM algorithm with 4 iterations and 8 subsets. As the PET/CT system is in daily clinical use, it is periodically subjected to detector normalization and activity calibration. Furthermore, all peripheral activity-measuring devices to be used for the investigation (dose calibrator, gamma counter) are cross-calibrated in terms of timing and a radioactivity adjustment.
The image data were analyzed with ROVER (ABX, Radeberg, Germany; v. 3.0.46h). The organs were identified and manually delineated using 3D volumes of interest (VOI). The CT data were used for anatomical orientation and for image registration with the PET data. Relevant source organs like brain, gall bladder, large intestine, small intestine, stomach, heart, kidneys, liver, lungs, pancreas, red marrow (backbone, pelvis, sternum), spleen, thyroid, testes, skeleton (bone), and the urinary bladder were delineated and the time–activity data transformed into percentage of injected dose (%IDorgan) with Equation (2). (2) %IDorgant=Aorgant×cscant/A0t [%] where Aorgant is the activity in the organ at the time t; cscant is a calibration factor representing the theoretical body activity (derived from a whole body mask of a volume that equals the body dimentions of the animal) decay corrected to t and divided by the imaged body activity in each image frame at the time t, and A0t is the injected activity decay corrected to t0.
The dose calculation has been described by our group in detail before. Briefly, due to differences in weight, size, and metabolic rates between the animal species and the human volunteers, it is necessary to map the preclinical extracted biodistribution data to human circumstances. Thus, the animal biokinetic data (time scale and %ID values) were adapted to the human circumstances according to [22] to fit the human weight, size, and metabolic rates (Equations (3) and (4)). (3) thuman=tanimal[mhuman/manimal]^0.25 (4) [%ID]/organhuman=[%ID]/ganimal×mTBanimal[g]/mTBhuman[g]×morganhuman[g]
The TIACs were estimated by exponential fitting and the dosimetry estimation was performed using OLINDA/EXM software (v. 2.1). Finally, organ doses (OD) were estimated and multiplied by tissue weighting factors as published in ICRP103 [20].

[1] = mean of three piglets, ICRP103 wT
[2] = mean of three piglets, adult male model
[3] = mean ± SD, three piglets, ICRP103 wT

With `CCCN(CCC[18F])c1ccc(/C=C(\C#N)C(=O)O)c(OC)c1` [[^18F]FACH, (E)-2-cyano-3-{4-[(3-[^18F]fluoropropyl)(propyl)amino]-2-methoxyphenyl}acrylic acid] the “Effective dose contribution HT wT, Heart Wall” value (FACHpig3) was 8.18E-05 mSv/MBq, the “Effective dose contribution HT wT, Kidneys” value (FACHpig3) was 2.59E-04 mSv/MBq and the “Effective dose contribution HT wT, Left colon” value (FACHpig3) was 5.06E-04 mSv/MBq. The “Effective dose contribution HT wT, Liver” value (FACHpig3) was 1.37E-03 mSv/MBq, the “Effective dose contribution HT wT, Lungs” value (FACHpig3) was 9.15E-04 mSv/MBq and the “Effective dose contribution HT wT, Osteogenic Cells” value (FACHpig3) was 2.03E-04 mSv/MBq. For the same compound, the “Effective dose contribution HT wT, Pancreas” value (FACHpig3) was 7.24E-05 mSv/MBq, the “Effective dose contribution HT wT, Prostate” value (FACHpig3) was 5.95E-05 mSv/MBq and the “Effective dose contribution HT wT, Rectum” value (FACHpig3) was 2.92E-04 mSv/MBq. The “Effective dose contribution HT wT, Red Marrow” value (FACHpig3) was 1.47E-03 mSv/MBq, the “Effective dose contribution HT wT, Right colon” value (FACHpig3) was 9.75E-04 mSv/MBq and the “Effective dose contribution HT wT, Salivary Glands” value (FACHpig3) was 6.33E-05 mSv/MBq. For the same compound, the “Effective dose contribution HT wT, Small Intestine” value (FACHpig3) was 9.09E-05 mSv/MBq, the “Effective dose contribution HT wT, Spleen” value (FACHpig3) was 7.43E-05 mSv/MBq and the “Effective dose contribution HT wT, Stomach Wall” value (FACHpig3) was 9.98E-04 mSv/MBq. The “Effective dose contribution HT wT, Testes” value (FACHpig3) was 2.90E-04 mSv/MBq, the “Effective dose contribution HT wT, Thymus” value (FACHpig3) was 6.50E-05 mSv/MBq and the “Effective dose contribution HT wT, Thyroid” value (FACHpig3) was 2.77E-04 mSv/MBq. For the same compound, the “Effective dose contribution HT wT, Total Body” value (FACHpig3) was 0.00E+00 mSv/MBq, the “Effective dose contribution HT wT, Urinary Bladder Wall” value (FACHpig3) was 3.52E-03 mSv/MBq and the “Organ equivalent dose HT, Adrenals” value (FACHpig3) was 1.47E-02 mSv/MBq. For the same compound, the “Organ equivalent dose HT, Brain” value (FACHpig3) was 4.10E-03 mSv/MBq, the “Organ equivalent dose HT, Esophagus” value (FACHpig3) was 8.11E-03 mSv/MBq and the “Organ equivalent dose HT, Eyes” value (FACHpig3) was 5.63E-03 mSv/MBq. The “Organ equivalent dose HT, Gallbladder Wall” value (FACHpig3) was 8.72E-02 mSv/MBq, the “Organ equivalent dose HT, Heart Wall” value (FACHpig3) was 8.86E-03 mSv/MBq and the “Organ equivalent dose HT, Kidneys” value (FACHpig3) was 2.81E-02 mSv/MBq. The “Organ equivalent dose HT, Left colon” value (FACHpig3) was 1.04E-02 mSv/MBq, the “Organ equivalent dose HT, Liver” value (FACHpig3) was 3.42E-02 mSv/MBq and the “Organ equivalent dose HT, Lungs” value (FACHpig3) was 7.62E-03 mSv/MBq. The “Organ equivalent dose HT, Osteogenic Cells” value (FACHpig3) was 2.03E-02 mSv/MBq, the “Organ equivalent dose HT, Pancreas” value (FACHpig3) was 7.85E-03 mSv/MBq and the “Organ equivalent dose HT, Prostate” value (FACHpig3) was 1.29E-02 mSv/MBq. For the same compound, the “Organ equivalent dose HT, Rectum” value (FACHpig3) was 1.27E-02 mSv/MBq, the “Organ equivalent dose HT, Red Marrow” value (FACHpig3) was 1.22E-02 mSv/MBq and the “Organ equivalent dose HT, Right colon” value (FACHpig3) was 2.01E-02 mSv/MBq. For the same compound, the “Organ equivalent dose HT, Salivary Glands” value (FACHpig3) was 6.33E-03 mSv/MBq, the “Organ equivalent dose HT, Small Intestine” value (FACHpig3) was 9.84E-03 mSv/MBq and the “Organ equivalent dose HT, Spleen” value (FACHpig3) was 8.05E-03 mSv/MBq. The “Organ equivalent dose HT, Stomach Wall” value (FACHpig3) was 8.32E-03 mSv/MBq, the “Organ equivalent dose HT, Testes” value (FACHpig3) was 7.26E-03 mSv/MBq and the “Organ equivalent dose HT, Thymus” value (FACHpig3) was 7.04E-03 mSv/MBq. For the same compound, the “Organ equivalent dose HT, Thyroid” value (FACHpig3) was 6.93E-03 mSv/MBq, the “Organ equivalent dose HT, Total Body” value (FACHpig3) was 8.63E-03 mSv/MBq and the “Organ equivalent dose HT, Urinary Bladder Wall” value (FACHpig3) was 8.80E-02 mSv/MBq. For the same compound, the “ED Contr., Adrenals” value [1] was 1.31 × 10^−4 mSv/MBq, the “ED Contr., Brain” value [1] was 4.69 × 10^−5 mSv/MBq and the “ED Contr., Esophagus” value [1] was 3.61 × 10^−4 mSv/MBq. The “ED Contr., Eyes” value [1] was 0.00 mSv/MBq, the “ED Contr., Gall Bladder Wall” value [1] was 4.65 × 10^−4 mSv/MBq and the “ED Contr., Heart Wall” value [1] was 8.72 × 10^−5 mSv/MBq. The “ED Contr., Kidneys” value [1] was 2.42 × 10^−4 mSv/MBq, the “ED Contr., Left Colon” value [1] was 6.63 × 10^−4 mSv/MBq and the “ED Contr., Liver” value [1] was 9.34 × 10^−4 mSv/MBq. For the same compound, the “ED Contr., Lungs” value [1] was 9.46 × 10^−4 mSv/MBq, the “ED Contr., Osteogenic Cells” value [1] was 2.12 × 10^−4 mSv/MBq and the “ED Contr., Pancreas” value [1] was 2.81 × 10^−4 mSv/MBq. The “ED Contr., Prostate” value [1] was 6.01 × 10^−5 mSv/MBq, the “ED Contr., Rectum” value [1] was 3.18 × 10^−4 mSv/MBq and the “ED Contr., Red Marrow” value [1] was 1.67 × 10^−3 mSv/MBq. The “ED Contr., Right Colon” value [1] was 1.16 × 10^−3 mSv/MBq, the “ED Contr., Salivary Glands” value [1] was 7.90 × 10^−5 mSv/MBq and the “ED Contr., Small Intestine” value [1] was 1.71 × 10^−4 mSv/MBq. For the same compound, the “ED Contr., Spleen” value [1] was 8.37 × 10^−5 mSv/MBq, the “ED Contr., Stomach Wall” value [1] was 1.31 × 10^−3 mSv/MBq and the “ED Contr., Testes” value [1] was 3.38 × 10^−4 mSv/MBq. The “ED Contr., Thymus” value [1] was 7.69 × 10^−5 mSv/MBq, the “ED Contr., Thyroid” value [1] was 2.83 × 10^−4 mSv/MBq and the “ED Contr., Total Body” value [1] was 0.00 mSv/MBq. The “ED Contr., Urinary Bladder Wall” value [1] was 2.50 × 10^−3 mSv/MBq, the “OD, Adrenals” value [2] was 1.42 × 10^−2 mSv/MBq and the “OD, Brain” value [2] was 4.69 × 10^−3 mSv/MBq. The “OD, Esophagus” value [2] was 9.03 × 10^−3 mSv/MBq, the “OD, Eyes” value [2] was 6.91 × 10^−3 mSv/MBq and the “OD, Gall Bladder Wall” value [2] was 5.04 × 10^−2 mSv/MBq. The “OD, Heart Wall” value [2] was 9.46× 10^−3 mSv/MBq, the “OD, Kidneys” value [2] was 2.62 × 10^−2 mSv/MBq and the “OD, Left Colon” value [2] was 1.37 × 10^−2 mSv/MBq. The “OD, Liver” value [2] was 2.33 × 10^−2 mSv/MBq, the “OD, Lungs” value [2] was 7.88 × 10^−3 mSv/MBq and the “OD, Osteogenic Cells” value [2] was 2.12 × 10^−2 mSv/MBq. The “OD, Pancreas” value [2] was 3.05 × 10^−2 mSv/MBq, the “OD, Prostate” value [2] was 1.30 × 10^−2 mSv/MBq and the “OD, Rectum” value [2] was 1.38 × 10^−2 mSv/MBq. The “OD, Red Marrow” value [2] was 1.39 × 10^−2 mSv/MBq, the “OD, Right Colon” value [2] was 2.40 × 10^−2 mSv/MBq and the “OD, Salivary Glands” value [2] was 7.90 × 10^−3 mSv/MBq. The “OD, Small Intestine” value [2] was 1.84 × 10^−2 mSv/MBq, the “OD, Spleen” value [2] was 9.08 × 10^−3 mSv/MBq and the “OD, Stomach Wall” value [2] was 1.09 × 10^−2 mSv/MBq. For the same compound, the “OD, Testes” value [2] was 8.45 × 10^−3 mSv/MBq, the “OD, Thymus” value [2] was 8.33 × 10^−3 mSv/MBq and the “OD, Thyroid” value [2] was 7.08 × 10^−3 mSv/MBq. For the same compound, the “OD, Total Body” value [2] was 9.76 × 10^−3 mSv/MBq, the “OD, Urinary Bladder Wall” value [2] was 6.26 × 10^−2 mSv/MBq and the “organ dose, gall bladder” value (mean ± SD, three piglets) was 50.4 ± 37.5 µSv/MBq. The “organ dose, kidneys” value (mean ± SD, three piglets) was 26.2 ± 2.2 µSv/MBq, the “organ dose, liver” value (mean ± SD, three piglets) was 23.3 ± 13.6 µSv/MBq and the “organ dose, pancreas” value (mean ± SD, three piglets) was 30.5 ± 27.3 µSv/MBq. For the same compound, the “organ dose, right colon” value (mean ± SD, three piglets) was 24.0 ± 7.4 µSv/MBq, the “organ dose, urinary bladder” value (mean ± SD, three piglets) was 62.6 ± 28.9 µSv/MBq and the “contribution to the ED, lungs” value [3] was 0.9 ± 0.05 µSv/MBq. For the same compound, the “contribution to the ED, red marrow” value [3] was 1.7 ± 0.3 µSv/MBq, the “contribution to the ED, right colon” value [3] was 1.2 ± 0.4 µSv/MBq and the “contribution to the ED, stomach” value [3] was 1.3 ± 0.4 µSv/MBq. For the same compound, the “contribution to the ED, urinary bladder” value [3] was 2.5 ± 1.1 µSv/MBq, the “ED to humans, preclinical” value (piglet biokinetic data, ICRP103 wT) was 12.4 µSv/MBq and the “ED to humans, corrected” value (~300 MBq iv, corrected for up to 40% underestimation) was “about 6.2 mSv”.
